Here are results for one molecule from ChEMBL document CHEMBL1212798, “High concentration of raltegravir in semen of HIV-infected men: results from a substudy of the EASIER-ANRS 138 trial” (2010).

Holding throughout (format): functional
Assay [1] has as its system Human immunodeficiency virus 1. Nature of the assay: Antiviral activity against HIV1.
Assay [2] concerns Human immunodeficiency virus 1. Put plainly: Antiviral activity against HIV1-infected in human assessed as decrease in semen viral RNA level measured after 5 hrs post dose.
The test system of assay [3] is Human immunodeficiency virus 1. Nature of the assay: Antiviral activity against HIV1-infected in human assessed as decrease in plasma viral RNA level measured after 9 hrs post dose.

The structures appear in SMILES notation.

In assay [1], `Cc1nnc(C(=O)NC(C)(C)c2nc(C(=O)NCc3ccc(F)cc3)c(O)c(=O)n2C)o1` [RALTEGRAVIR] showed a Virucidal of 14.6 ng/mL. Moreover, the Activity in assay [2] turned out to be 100 mL⁻¹; in assay [3], 50 mL⁻¹.
